Earlier results, collected in US12508269B2, “Parenteral dosage form of carboplatin” (priority 2018, dated 2025).

SMILES: [NH2][Pt]1([NH2])[O]C(=O)C2(CCC2)C(=O)[O]1 [carboplatin, diammine [1,1-cyclobutanedicarboxylato(2-)-0, 0′]]
- time for which reconstituted or diluted aqueous solutions were stable (Myres et al, refrigeration in the dark or room temperature exposed to fluorescent light): seven
- time for which reconstituted solutions are stable (pack insert of Paraplatin and references): 8 h
